From patent US20030207830A1, “Mutant NDP kinases for antiviral nucleotide analog activation and therapeutic uses thereof” (priority 2002, published 2003) come the findings set out here.

Residue numbers refer to the chain shown, from its start. Numbers in names are those of the source.

Data set [1] has as its target T1, Dictyostelium discoideum NDP kinase (Dd-NDPK), wild type (Dictyostelium discoideum, UniProt P22887).
T1 construct: made in house
Put plainly: Pre-steady-state phosphotransfer, fluorescence stopped-flow. The class given is biochemical. The note with it: catalytic efficiency of phosphotransfer, wt. As to the method: (§1) (A) Kinetics of reaction of phosphorylated Dictyostelium wild type and N119S NDP kinases by 100 μM Acyclovir diphosphate (Acy-DP). The phosphorylated enzyme was prepared with a stoichiometry #1 as described (Deville-Bonne 1996). The kinases were preincubated with ATP in excess in buffer T (50 mM Tris-HCl, pH 7.5, 5 mM MgCl2 and 75 mM KCl). The increase in fluorescence upon mixing the phospho-enzyme (1 μM, final concentration) with Acy-DP in buffer T at 20° C. was monitored with a stopped-flow. The solid lines represent the best fit of each curve to a monoexponential.
(§2) (B) Concentration dependence of the rate constant on Acy-DP concentation. The pseudo-first order rate constant for the reaction (kobs) was plotted against Acy-DP.
(§3) All numbers in italics have already been published (Schneider, 1998, 2000) The kinetic constants were measured at the pre-steady-state level using a fluorescence stopped-flow device. The binding constants were determined at equilibrium by recording the increase in fluorescence (Schneider, 2000). Values are the average of three independent determinations.
(§4) Wild type human NDPK-A and the mutants were expressed and purified according to Schneider et al., 2000, Mol Pharm. Recombinant wild type and mutant Dd-NDPK were obtained as described (Schneid, 1998a), except for N119Y NDP kinase which was partially purified by Q sepharose FF chromatography. Each protein was characterized by […] electrophoresis. The concentration of 17 kDa subunits of the enzyme was either determined by Bradford assay ([…]) or using an absorbance coefficient of ΔA^280=1.249 for a 1 mg/mL solution of human wild type and N115S NDPK-A, and =0.55 for wild type and mutant N119S, N119T Dd-NDP kinases, respectively.
(§5) As the diphosphate form of analogs were not always available, the triphosphate analogs were used to study phosphate transfer in reaction as in Scheme I. Experiments were performed with an Hi-Tech DX2 microvolume stopped-flow reaction (Schneider, 1998) at Aexc=296 nm (for Ado derivatives) or […] (for other nucleotides), 2 mm excitation slit and a 320 nm cutoff filter at the emission. After mixing NDPK (1 μM) and NTP or an analogTP (10-500 μM), the intrinsic protein fluorescence was recorded for 10-200 sec. In each experiment, 400 pairs of data were recorded, and the data from 3-4 identical experiments were averaged and fitted to a number of non-linear analytical equations using the software provided by Hi-Tech. All curves fitted to single exponentials.
(§6) The data were analyzed using the reaction scheme: [drawing 1]
(§7) In both the forward and the reverse reactions, the product concentration remains very low, thus the product binding can be neglected, and the observed single step could be attributed to the phosphotransfer (Schneider, 1998). The rate of this observed single step is: [formula]
(§8) and reaches a limiting value (k+2) at NTP saturation. Saturation could not be obtained with the concentrations of any NTP used here. Therefore, catalytic efficiencies of phosphorylation (CEphos=k+2/(k−1/k+1)=k+2/KS) were measured, which are equivalent to second order constants and allow a reliable comparison of a variety of NDP kinase substrates.

Data set [2] addresses T2, Dictyostelium discoideum NDP kinase (Dd-NDPK) variant N119S, SEQ ID NO: 1 (Dictyostelium discoideum, UniProt P22887, N119S).
T2 construct: made in house
Described as above. Conditions: for k2/Ks: catalytic efficiency of phosphotransfer, N119S, pre-steady state. The class given is biochemical. As to the method: as §1, §2, §3, §4, §5, §6, §7, §8

Data set [3] concerns the target T3, human NDP kinase A (NDPK-A) variant N115S, SEQ ID NO: 2 (Homo sapiens, UniProt P15531, N115S).
T3 construct: made in house; host or cells: E. coli
The description is as above. The note with it: for k2/Ks: catalytic efficiency of phosphotransfer; for Specificity change (R): ratio of catalytic efficiencies analog vs natural nucleotide, mutant vs wild type. It counts as biochemical. As to the method: (§9) FIG. 3 depicts the catalytic efficiency of NDPK-A and mutants for nucleoside analogs. The rates of phosphorylation of pure recombinant NDP kinases (1 μM) were measured at the pre-steady state in a fluorescence stopped-flow with d4T-TP (10 to 80 μM). The catalytic efficiency (expressed in M^−1s^−1) was determined from the variation of the rate as a function of analog as shown in FIG. 2 (▾, NDPK-A, ♦ L55H, ● N115S, ▪ L55H-N115S).
(§10) The activity assays were performed at the pre-steady state level.
(§11) R, the specificity change, is the ratio of the catalytic efficiencies (for analog versus natural nucleotide) of the mutant compared to the wild type enzyme.
as §4
as §5, with “Hi-Tech.” for “Hi-Tech. All curves fitted to single exponentials.”
as §6, §7
(§12) and reaches a limiting value (k+2) at NTP saturation. […] Therefore, catalytic efficiencies of phosphorylation (CEphos=k+2/(k−1/k+1)=k+2/KS) were measured, which are equivalent to second order constants and allow a reliable comparison of a variety of NDP kinase substrates.

Data set [4] deals with T4, human NDP kinase A (NDPK-A) variant L55H (Homo sapiens, UniProt P15531, L55H).
T4 construct: made in house; host or cells: E. coli
T4 sequence (P15531 whole entry L55H): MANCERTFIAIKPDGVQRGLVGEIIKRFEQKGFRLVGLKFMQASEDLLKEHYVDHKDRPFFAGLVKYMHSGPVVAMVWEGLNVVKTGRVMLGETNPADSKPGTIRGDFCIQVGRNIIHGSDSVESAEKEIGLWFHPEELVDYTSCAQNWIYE
Described as above. The class given is biochemical. The note with it: for k2/Ks: catalytic efficiency of phosphotransfer; for Specificity change (R): ratio of catalytic efficiencies analog vs natural nucleotide, mutant vs wild type. As to the method:
as §9, §10, §11, §4
as §5, with “Hi-Tech.” for “Hi-Tech. All curves fitted to single exponentials.”
as §6, §7, §12

Data set [5] deals with T5, human NDP kinase A (NDPK-A) variant L55H-N115S, SEQ ID NO: 3 (Homo sapiens, UniProt P15531, L55H/N115S).
T5 construct: made in house; host or cells: E. coli
T5 sequence (P15531 whole entry L55H/N115S): as the sequence (P15531 whole entry L55H) above, with N115S counted along it
Described as above. The class given is biochemical. The note with it: for k2/Ks: catalytic efficiency of phosphotransfer; for Specificity change (R): ratio of catalytic efficiencies analog vs natural nucleotide, mutant vs wild type; for enhancement of ability to phosphorylate: substitution of Asn 115 for Ser and Leu 55 for His. As to the method:
as §9, §10, §11, §4
as §5, with “Hi-Tech.” for “Hi-Tech. All curves fitted to single exponentials.”
as §6, §7, §12

Data set [6] has as its target T6, human NDP kinase A (NDPK-A, nm23-H1), wild type (Homo sapiens, UniProt P15531).
T6 construct: made in house
The data set is described as above. It counts as biochemical. The note with it: for k2/Ks: catalytic efficiency of phosphotransfer, NDPK-A, pre-steady state. The method, then: as §9, §10, §4
as §5, with “Hi-Tech.” for “Hi-Tech. All curves fitted to single exponentials.”
as §6, §7, §12

For data set [7], the target named is T7, Dictyostelium discoideum NDP kinase inactive variant EI (H122G-F64W) (Dictyostelium discoideum, UniProt P22887, F64W/H122G).
T7 construct: made in house
T7 sequence (P22887 whole entry F64W/H122G): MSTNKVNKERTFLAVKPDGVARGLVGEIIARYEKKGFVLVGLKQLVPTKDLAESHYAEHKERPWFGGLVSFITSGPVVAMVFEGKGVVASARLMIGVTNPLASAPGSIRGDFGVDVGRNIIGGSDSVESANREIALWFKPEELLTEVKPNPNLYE
As to the kind of experiment: biochemical. The class given is binding. The method, then: (§13) The binding constants were determined at equilibrium by recording the increase in fluorescence (Schneider, 2000).
(§14) Analog binding affinity was measured using a variant of Dd-NDPK (EI) as described (Schneider, 2000). […] The mutation N119S was inserted in EI in order to measure the nucleotide affinity by fluorescence titration.
(§15) Altered bases as compared to the wild type sequence are underlined in bold. Sequences were checked by automatic sequencing. The mutant EI-N119S was obtained by mutation of the previously described F64W-H122G mutated NDP kinase (here called EI) (Schneider 2000).

In data set [8] the target is T8, Dictyostelium discoideum NDP kinase inactive variant EI-N119S (H122G-F64W-N119S) (Dictyostelium discoideum, UniProt P22887, F64W/H122G/N119S).
T8 construct: made in house
T8 sequence (P22887 whole entry F64W/N119S/H122G): as the sequence (P22887 whole entry F64W/H122G) above, with N119S counted along it
Put plainly: biochemical. The class given is binding. As to the method: as §13, §14, §15

Data set [9] has as its target T9, Dictyostelium NDP Kinase N119S (Dictyostelium discoideum, UniProt P22887, N119S).
T9 construct: made in house
Put plainly: Pre-steady-state fluorescence stopped-flow phosphotransfer from nucleoside triphosphates, N119S Dd-NDPK. The class given is biochemical. The note with it: pre-steady state, stopped-flow; average of three determinations. As to the method:
as §3, §5, §6, §7, §8

Data set [10] is described as follows: Steady-state NDP kinase activity, coupled enzymes (pyruvate kinase, lactate dehydrogenase). Conditions: for specific activity: standard conditions: [ATP]=1 mM, [dTDP]=0.2 mM, 20° C. It counts as biochemical. The method, then:
The activity of NDP kinase was measured at 20° C. with ATP and dTDP as substrates using coupled enzymes (pyruvate kinase and lactate dehydrogenase) (Lascu 1993). One unit is the amount of enzyme that catalyzes the phosphotransfer of 1 μmol/min under standard conditions: [ATP]=1 mM, [dTDP]=0.2 mM. Rate constants (kcat) and Michaelis constants (Km) were determined from initial velocities for two different constant ratios of nucleotide [dTDP]/[ATP]=0.05 0.1 with [ATP] varying from 0.2 to 2 mM. kcat is expressed by enzyme subunit. The ratio of the ^apparentkcat/^apparentKM at a given concentration of the other substrate is equal to the true value of kcat/KM for a ping-pong enzyme.

T2 sequence (P22887 whole entry N119S): as the sequence (P22887 whole entry F64W/H122G) above, with W64F, N119S, G122H counted along it
T3 sequence (P15531 whole entry N115S): as the sequence (P15531 whole entry L55H) above, with H55L, N115S counted along it
T6 sequence (P15531 whole entry): as the sequence (P15531 whole entry L55H) above, with H55L counted along it
T1 sequence (P22887 whole entry): as the sequence (P22887 whole entry F64W/H122G) above, with W64F, G122H counted along it
T9 sequence (P22887 whole entry N119S): as the sequence (P22887 whole entry F64W/H122G) above, with W64F, N119S, G122H counted along it

Regarding `Nc1nc2c(ncn2COCCOP(=O)(O)OP(=O)(O)OP(=O)(O)O)c(=O)[nH]1` [acyclovirTP], the k2/Ks was found to be 350 M⁻¹ s⁻¹ in data set [1]; 1650 M⁻¹ s⁻¹ in data set [2]; 250 M⁻¹ s⁻¹ in data set [3] (N115S, pre-steady state); 160 M⁻¹ s⁻¹ in data set [4] (L55H, pre-steady state); 2600 M⁻¹ s⁻¹ in data set [5] (L55H-N115S, pre-steady state); 25 M⁻¹ s⁻¹ in data set [6]. Further, the “ranking as analog substrate” value in [2] (N119S NDP kinase) is recorded as “best analog substrate”. Further, the “Specificity change (R)” value in [3] was “(150)”; in data set [4] it was “(3.4)”; in data set [5], “(460)”. Moreover, the dissociation constant (Kd) in [7] amounted to 190 µM; in data set [8], 20 µM. In data set [8] (relative KD, EI versus EI-N119S), the “increase of affinity by Ser (N119S)” value is listed as 10 fold.

As for `Nc1nc2c(ncn2COCCO)c(=O)[nH]1` [acyclovir], the “enhancement of ability to phosphorylate” value in data set [5] is 200-300 times.

On to `Cc1cn([C@H]2C=C[C@@H](COP(=O)(O)OP(=O)(O)OP(=O)(O)O)O2)c(=O)[nH]c1=O` [d4T-TP, dideoxy, didehydro-TTP], for which the “factor of rate versus wild type NDPK-A” value in data set [3] (N115S, pre-steady state) is listed as 1.8; in data set [4] (L55H, pre-steady state) it was 9; in [5] (L55H-N115S, pre-steady state), 80. Also, the k2/Ks in [3] (N115S, pre-steady state) amounted to 6250 M⁻¹ s⁻¹; in [4] (L55H, pre-steady state) it was 1280 M⁻¹ s⁻¹; in data set [6], 700 M⁻¹ s⁻¹. Further, the “Specificity change (R)” value in [3] was “(120)”; in [4] it was “(10)”; in data set [5], “(210)”. Also, in data set [4] (L55H mutant), the “reaction rate compared with Dd-NDPK” value is recorded as “at the same rate as Dd-NDPK”. The “reactivity compared with dTTP” value in data set [5] (double mutant, catalytic efficiency) was “eight fold less”. In addition, the “times more slowly than with dTTP” value in data set [6] (NDPK-A wild type) came to 1700 times.

Consider `Cc1cn([C@H]2C=C[C@@H](CO)O2)c(=O)[nH]c1=O` [d4T], for which the “enhancement of ability to phosphorylate” value in data set [5] is on record as 200-300 times.

In the case of `Nc1nc2c(ncn2[C@H]2C[C@H](O)[C@@H](COP(=O)(O)OP(=O)(O)OP(=O)(O)O)O2)c(=O)[nH]1` [dGTP], the k2/Ks in data set [3] (N115S, pre-steady state) was determined as 240000 M⁻¹ s⁻¹; in data set [4] (L55H, pre-steady state) it was 6.8e+06 M⁻¹ s⁻¹; in data set [5] (L55H-N115S, pre-steady state) it was 500000 M⁻¹ s⁻¹; in data set [6], 3.6e+06 M⁻¹ s⁻¹.

Turning to `Nc1ncnc2c1ncn2[C@H]1CC[C@@H](COP(=O)(O)OP(=O)(O)OP(=O)(O)O)O1` [ddATP], the k2/Ks in [1] is 1300 M⁻¹ s⁻¹; in [2], 2700 M⁻¹ s⁻¹. The “k2/Ks N119S (catalytic efficiency of phosphotransfer)” value in data set [9] was 2700 M⁻¹ s⁻¹. Also, the Kd in data set [7] was 4.6 µM; in [8], 2.6 µM.

As to `Cc1cn([C@H]2CC[C@@H](COP(=O)(O)OP(=O)(O)OP(=O)(O)O)O2)c(=O)[nH]c1=O` [dideoxy-TTP], the k2/Ks in data set [3] (N115S, pre-steady state) was found to be 170 M⁻¹ s⁻¹; in data set [4] (L55H, pre-steady state), 200 M⁻¹ s⁻¹; in data set [5] (L55H-N115S, pre-steady state), 2800 M⁻¹ s⁻¹; in [6], 20 M⁻¹ s⁻¹. For the same molecule, the “Specificity change (R)” value in data set [3] is reported as “(100)”; in data set [4], “(6)”; in [5], “(370)”.

On to “L55H: human NDPK-A with Leu 55 replaced by His”, for which the “steady-state activity relative to NDPK-A” value in data set [10] (ATP and dTDP) turned out to be 1.6 fold. The specific activity in data set [10] is 1900 U/mg.

B1: N119Y: Dd-NDPK with Tyr at the position of Asn 119, unstable and poorly active (protein, UniProt P22887 1-155, looked up, variant N119Y)
Nucleoside diphosphate …: MSTNKVNKERTFLAVKPDGVARGLVGEIIARYEKKGFVLVGLKQLVPTKDLAESHYAEHKERPFFGGLVSFITSGPVVAMVFEGKGVVASARLMIGVTNPLASAPGSIRGDFGVDVGRYIIHGSDSVESANREIALWFKPEELLTEVKPNPNLYE
On to B1, for which, in [10] (Dd-NDPK mutant, partially purified), the “activity relative to wild type” value is 0.05 % of wild type activity.

B2: Dd-NDPK: wild type NDP kinase from Dictyostelium discoideum (protein, UniProt P22887 1-155, looked up)
Nucleoside diphosphate …: B1 Nucleoside diphosphate … with Y119N
Turning to B2, in [10], the specific activity amounted to 2000 U/mg.

A word on the Kd: it is the constant that tells how readily two partners part at equilibrium. A high value points to a looser complex.
